The structures appear in SMILES notation.

Consider 2 compounds from PMC5095007, “Liposomal bortezomib is active against chronic myeloid leukemia by disrupting the Sp1-BCR/ABL axis” (Oncotarget, 2016).

One series deals with K562/DOX cells. Put plainly: Chemosensitization to doxorubicin by subtoxic BORT formulations, MTT/MTS assay. The format is cell-based. The note with it: Homo sapiens, DOX alone (No BORT), mean ±SD, n=6. (Formazan colour is commonly taken as a measure of viable cells.)
The subject of the next series is K562 single tumor cells. Put plainly: Chemosensitization of single tumor cells to doxorubicin, MTT assay. The note with it: DOX alone (no BORT), mean ±SD, n=6. It is filed as cell-based. Here is the method: To investigate how L-BORT influences tumor cell growth, tumors were harvested from K562 tumor bearing mice and separated into single cells by collagenase. The single tumor cells were then cultured in RPMI1640 medium with 10% FBS and the cell survival was then evaluated in the presence of doxorubicin combined with subtoxic BORT. As shown in Figure 5C and Table 4, a synergistic effect of toxicity to single tumor cells was found between DOX and free BORT, consistent with what we have observed in K562 cells. […] L-BORT, with enhanced BORT delivery, amplified the synergy effect to approximately a 70-fold increase in chemosensitivity (p < 0.05).
K562 cells (10×10^6) were subcutaneously injected into the flank of 4-6 week old NOD/SCID mice (The Jackson Laboratory, Bar Harbor, ME). When the tumor size approached 1000 mm^3, the tumors were harvested from mouse flank and cut into pieces in PBS buffer. Collagenase was added into the above buffer and incubated for 2 hours at 37°C with shaking. The digested tumor cell suspension was filtered through a cell strainer and centrifuged at 1200 rpm for 5 minutes. The separated tumor cells were kept in cell frozen medium and stored in liquid N2 until use. […]

The test system of series [1] is BCR/ABL protein expression in K562 cells. Put plainly: Western blotting of BCR/ABL and Sp1. It is filed as cell-based. Here is the method:
Sp1 siRNA, miR-29b and their scrambles were introduced into K562 cells by Lipofectamine™ 2000 (Invitrogen) and the Western blotting was performed as previously described. The antibodies used are: Sp1, DNMT3a, β-actin and ubiquitin (Santa Cruz Biotechnology, Santa Cruz, CA); ABL, phospho-ABL, caspase-3 and caspase-8 (Cell Signaling Technology, Danvers, MA); Parp, CRKL and p-CRKL (Millipore, Billerica, MA).

The test system of series [2] is BCR/ABL protein expression in KU812 cells. Put plainly: Western blotting of BCR/ABL and Sp1. The format is cell-based. The note with it: KU812, different doses of BORT for 24 hours. (In general: Immunoblotting shows a protein as a band on a membrane.)
A further series is described as follows: in vivo. The note with it: ICR, mouse, plasma, iv, 1 mg/kg.
A short description of series [3]: Toxicity assay in vivo in normal mice. The note with it: normal BALB/cByJ mice, 2.5 mg/kg every four days, tail vein; in two weeks. The procedure: To determine the toxicity in vivo, liposomal vehicle, free or L-BORT was administrated through the tail vein to normal BALB/cByJ mice (6-8 weeks old, 22 ± 5 g) in a small volume (0.2 ml) at normal pressure. The dose used was 2.5 mg/kg every four days.

Series [4] in a line: Pharmacokinetics after tail vein injection, plasma BORT by ICP-OES. The note with it: ICR mice, 1.0 mg/kg i.v. tail vein, mean (%CV), n=5.
Description: BORT exposure and elimination in mice were investigated following a tail vein injection of L-BORT at 1.0 mg/kg dose. […] PK parameters were obtained by Non-compartmental PK analysis in Phoenix WinNonlin.
BORT (1.0 mg/kg) was injected into ICR mice via the tail vein and blood samples were collected at various time points. Plasma was isolated by centrifugation at 1500×g for 10 minutes and stored at −20°C. Concentration of BORT in the plasma was calculated from boron concentration the sample, which was measured by coupled plasma-optical emission spectrometers (ICP-OES). For ICP-OES measurement, the plasma samples were prepared as previously described [28]. Data analysis and PK parameter calculations were carried out in Phoenix® WinNonlin® 6.3 (Certara, Princeton, NJ).
The subject of the next series is K562 cells. Put plainly: Cytotoxicity of BORT formulations, MTT/MTS cell proliferation assay. The format is cell-based. The note with it: mean ±SD, n=6.
In the next series the test system is imatinib-refractory CML. Details: method as in PMID 21816374. The note with it: pilot clinical trial, imatinib-refractory CML patients; ref [15]; cited from earlier work.

Description for K562/DOX cells: To determine if L-BORT and Tf-L-BORT could enhance the cytotoxicity of agents used for CML therapy, we employed the MTS assay to evaluate the cytotoxic effects of doxorubicin, alone and in combination with a subtoxic BORT formulation at 2 nM to doxorubicin resistant K562/DOX cells. Initially, we determined the effects of drug treatment sequences on chemosensitivities by treating the K562/DOX cells with 100 nM doxorubicin for 24-hour before, after or simultaneous addition of subtoxic 2 or 10 nM Tf-L-BORTs followed by another 24 hour co-incubation. […] We then applied this treatment strategy to K562/DOX cells exposed to various concentrations of doxorubicin.
To evaluate BORT toxicity, K562 cells were treated by different concentration of free- or L-BORT. Regarding to the chemosensitivity to doxorubicin, the K562/ DOX cells were pre-treated with doxorubicin for 24 hours and then subtoxic BORT formulations were added for additional 24 hours. Cellular viability was assessed by MTT proliferation assays (Promega, Madison, WI).
For the studies, 24-hour treatment. At this point, 20 μL of CellTiter 96®
AQueous One Solution was added to each well and
37 °C for another 1 hour.

Turning to `COc1cccc2c1C(=O)c1c(O)c3c(c(O)c1C2=O)C[C@@](O)(C(=O)CO)C[C@@H]3O[C@H]1C[C@H](N)[C@H](O)[C@H](C)O1` [DOX, doxorubicin], the IC50 in the series with K562/DOX cells is 20.2 ± 8.75 µM; with K562 single tumor cells (48 hours), 17.1 ± 0.534 µM; in the series with K562 single tumor cells (Homo sapiens, K562, 48 h), 17 µM. Besides, the BCR/ABL expression result in series [1] (K562, various doses, 48 hours) was “dose-dependently downregulated”.

As to `CC(C)C[C@H](NC(=O)[C@H](Cc1ccccc1)NC(=O)c1cnccn1)B(O)O` [Free BORT, bortezomib], the “Sp1 and BCR/ABL protein expression” value in series [2] was “inhibition of Sp1 and BCR/ABL protein expression”. In the series “in vivo”, this compound had an AUC(0-inf) of 469 ng·h/mL, a Cmax of 758 ng/mL, a clearance of 25.2 mL/min/kg and a half-life of 12.4 h. In addition, in series [3], the mice died is given as 50%. Further, in [4] (1 mg/kg), the AUCinf is recorded as 0.661 (12.8%) μg·hr/mL. In addition, in [4] (total body clearance), the CL was 1.51 (17.9%) L/hr/kg. In addition, the V in series [4] (volume of distribution) is 27.1 (17.6%) L/kg. Also, half-maximal inhibition in the series with K562 cells (48 hours) (IC50) was put at 0.0393 ± 0.00227 µM. In the series with K562 cells (Homo sapiens, K562, 48 h), this compound registered an IC50 of 0.039 µM. Besides, in the series with imatinib-refractory CML, the clinical efficacy entry is “minimal efficacy” and the clinical toxicity entry is given as “considerable toxicity”. Also, in series [1] (K562, different doses of BORT for 24 hours), the “Sp1 and BCR/ABL protein expression” value is “inhibition of Sp1 and BCR/ABL protein expression”.

Broadly, the IC50 is the concentration that gives 50% inhibition. In general, AUC(0-inf) refers to total exposure, with the tail of the curve extrapolated. A low value points to less exposure. In general, Cmax refers to the highest concentration seen after dosing. Usually clearance stands for the rate of elimination divided by the concentration. Low values mean inefficient removal, high ones efficient removal. By half-life is commonly meant the time needed for the level to fall by half in the phase considered.
